Several values for one entry are separate records, joined by “and”; a condition that tells them apart may be missing. Equal entries are not always repeated. Where two headings read alike, the source gives them in different places.
Experiments:
[1] = system: infiltrating inflammatory cells in BALF; assay: Bronchoalveolar lavage fluid cell count in BLM mice; type: in vivo, C57BL/6 mice; details: 30 mg·kg^−1, day 14
Procedure: Male C57BL/6 mice (8‐10 weeks old) were purchased from HFK Bioscience Co. Ltd. All animal experiments were permitted by the Institutional Animal Care and Treatment Committee of Sichuan University in China (New Permit Number: 20190524003). Lung fibrosis was induced using BLM treatment (2 mg·kg^−1). All C57BL/6 mice were divided into five groups (n = 10): a BLM + Nintedanib group (Nintedanib, 30 mg·kg^−1), a BLM + YTH‐60 group (YTH‐60, 15 mg·kg^−1 and 30 mg·kg^−1), a control group (Sham), and a bleomycin group (Vehicle). At the beginning, the mice were anaesthetized using 10% chloral hydrate, dissolved BLM with saline and administered intratracheally. To evaluate the preventive effect, the next day after BLM challenge, YTH‐60 and Nintedanib were administered intraperitoneally daily for 13 days (fibroproliferation) to the mice. All mice were sacrificed 24 hours after the last drug injection, the lungs and other organs were taken for the subsequent analysis. To test the therapeutic effect, after the 7th day of BLM treatment, mice were injected intraperitoneally with YTH‐60, Nintedanib and vehicle daily for 7 consecutive days (fibroproliferation).
After the animals were anaesthetized, rinsing the lungs with 1 mL of normal saline three times and collected bronchoalveolar lavage fluid. The total living cell count was performed by an ADVIA 2120i.

LO2 cells = assay: Cytotoxicity in normal human liver cell line; type: cell-based; details: 24 hours exposure
Procedure: The cell viability of YTH‐60 and Nintedanib treatment was performed by MTT and CCK8 assay. Briefly, the exponentially growing cells were seeded in 96‐well (2‐5 × 10^3 cells·well^−1) and cultured for 24 hours. The cells were treated with different concentrations of YTH‐60 (0, 0.625, 1.25, 2.5, 5, 10 µmol·L^−1), after treatment for 24, 48 and 72 hours, respectively, a volume of 20 μL of 5 mg·mL^−1 MTT solution or 10 μL CCK‐8 solution was added to each well and incubation for 2‐4 hours at 37°C. Finally, the 96‐well plates were read on Multiskan FC microplate spectrophotometer at 570 or 450 nm wavelength.

[2] = system: phosphorylation of Smad2/3; assay: Western blot of TGF‐β1‐induced Smad signalling in fibroblasts; type: cell-based; details: TGF‐β1, 24 hours
Procedure: Samples of cells and mouse lung tissues were lysed in RIPA buffer with a protease and phosphatase inhibitors (Selleckchem). The protein concentrations in the cell lysate were measured by the Lowry method. Approximately 50 μg of total protein was separated by SDS‐PAGE and then transferred to polyvinylidene fluoride (PVDF) membranes (Amersham Bioscience). After the membranes incubation with the specific primary and secondary antibodies, the reactive bands were detected with enhanced chemiluminescent substrate to horseradish peroxidase.

A549 cells = assay: Wound healing assay; type: cell-based, human; details: A549, combined with TGF‐β1 vs TGF‐β1 alone
Procedure: A549 cells (1 × 10^6 well^−1) were grown on 6‐well plates in 2 mL 10% FBS DMEM medium. Making a scratch with a sterile 200 μL microtube tip after 24 hours and the scratched cells were washed gently with serum‐free DMEM. Then, TGF‐β1 or YTH‐60 added to their corresponding wells and cultured for 24 hours. Each picture was imaged at three different locations. ImageJ software was used to estimate the percentage of the original width by measuring the width of the scratches.

[3] = Pharmacokinetics study after IV and PO administration to SD rats; type: in vivo
Procedure: The appropriate amount of YTH‐60 was accurately weighed, added to the final volume of 5% DMSO, 40% PEG400 and 55% normal saline, and vortexed or ultrasonicated to fully mix. Then, 0.4 and 2 mg·mL^−1 of clarified dosing solution was used for intravenous administration and oral gavage administration. SD rats were transferred from the Experimental Animal Library (999 M‐017), Shanghai Xipuer‐Beikai Experimental Animal Co. Ltd. After oral, intravenous or intragastric administration, blood was collected by jugular vein or other suitable methods. Approximately 0.20 mL of each sample was collected, in the presence of heparin sodium as an anticoagulant. After the blood samples were collected, they were placed on ice and centrifuged to separate plasma within 2 hours (centrifugation conditions: centrifugal force 6800 g, 6 minutes, 2‐8°C). The collected plasma samples were stored at −80°C before analysis by LC‐MS/MS‐18. After analysis, the remaining plasma samples were stored at −80°C for a period of 1 month.

- Individual plasma concentration ([3]; IV 2 mg/kg, 0.083 h, individual animals 101, 102, 103, 2 mg/kg): 423.84 ng/mL and 362.43 ng/mL
- Individual plasma concentration ([3]; IV 2 mg/kg, 0.25 h, individual animals 101, 102, 103, 2 mg/kg): 168.72 ng/mL and 204.54 ng/mL
- Individual plasma concentration ([3]; IV 2 mg/kg, 0.5 h, individual animals 101, 102, 103, 2 mg/kg): 128.91 ng/mL and 163.29 ng/mL
- Individual plasma concentration ([3]; IV 2 mg/kg, 1 h, individual animals 101, 102, 103, 2 mg/kg): 107.71 ng/mL and 131.39 ng/mL
- Individual plasma concentration ([3]; IV 2 mg/kg, 2 h, individual animals 101, 102, 103, 2 mg/kg): 69.27 ng/mL and 80.59 ng/mL
- Individual plasma concentration ([3]; IV 2 mg/kg, 4 h, individual animals 101, 102, 103, 2 mg/kg): 42.78 ng/mL and 48.71 ng/mL
- Individual plasma concentration ([3]; IV 2 mg/kg, 6 h, individual animals 101, 102, 103, 2 mg/kg): 34.45 ng/mL and 41.43 ng/mL
- Individual plasma concentration ([3]; IV 2 mg/kg, 8 h, individual animals 101, 102, 103, 2 mg/kg): 22.38 ng/mL and 32.19 ng/mL
- Individual plasma concentration ([3]; IV 2 mg/kg, 24 h, individual animals 101, 102, 103, 2 mg/kg): 2.68 ng/mL and 3.51 ng/mL
- Individual plasma concentration ([3]; PO 20 mg/kg, 0.25 h, individual animals 201, 202, 203, 20 mg/kg): 38.10 ng/mL and 22.94 ng/mL
- Individual plasma concentration ([3]; PO 20 mg/kg, 0.5 h, individual animals 201, 202, 203, 20 mg/kg): 25.31 ng/mL and 35.39 ng/mL
- Individual plasma concentration ([3]; PO 20 mg/kg, 1 h, individual animals 201, 202, 203, 20 mg/kg): 34.05 ng/mL and 26.26 ng/mL
- Individual plasma concentration ([3]; PO 20 mg/kg, 4 h, individual animals 201, 202, 203, 20 mg/kg): 83.13 ng/mL and 87.88 ng/mL
- Individual plasma concentration ([3]; PO 20 mg/kg, 6 h, individual animals 201, 202, 203, 20 mg/kg): 85.16 ng/mL and 114.92 ng/mL
- Individual plasma concentration ([3]; PO 20 mg/kg, 8 h, individual animals 201, 202, 203, 20 mg/kg): 79.77 ng/mL and 97.21 ng/mL
- Individual plasma concentration ([3]; PO 20 mg/kg, 24 h, individual animals 201, 202, 203, 20 mg/kg): 14.36 ng/mL and 18.49 ng/mL
- concentration at 2 h ([3]; SD, rat, plasma, iv, 2 mg/kg, IV 2 mg/kg, 2 h, individual animals 101, 102, 103, read-out: Individual plasma concentration): 68.3 ng/mL
- concentration at 2 h ([3]; SD, rat, plasma, iv, 2 mg/kg, IV 2 mg/kg, 2 h, read-out: Mean plasma concentration): 72.7 ng/mL
- concentration at 4 h ([3]; SD, rat, plasma, iv, 2 mg/kg, IV 2 mg/kg, 4 h, individual animals 101, 102, 103, read-out: Individual plasma concentration): 41.1 ng/mL
- concentration at 4 h ([3]; SD, rat, plasma, iv, 2 mg/kg, IV 2 mg/kg, 4 h, read-out: Mean plasma concentration): 44.2 ng/mL
- concentration at 6 h ([3]; SD, rat, plasma, iv, 2 mg/kg, IV 2 mg/kg, 6 h, individual animals 101, 102, 103, read-out: Individual plasma concentration): 36.8 ng/mL
- concentration at 6 h ([3]; SD, rat, plasma, iv, 2 mg/kg, IV 2 mg/kg, 6 h, read-out: Mean plasma concentration): 37.6 ng/mL
- concentration at 8 h ([3]; SD, rat, plasma, iv, 2 mg/kg, IV 2 mg/kg, 8 h, individual animals 101, 102, 103, read-out: Individual plasma concentration): 20.4 ng/mL
- AUC ([3]; SD, rat, plasma, iv, 2 mg/kg, SD rats, i.v. 2 mg·kg^−1, read-out: AUC0‐t): 773 ± 99.4 ng·h/mL
- AUC ([3]; SD, rat, plasma, iv, 2 mg/kg, SD rats, i.v. 2 mg·kg^−1, read-out: AUC0‐∞): 793 ± 104 ng·h/mL
- MRT ([3]; SD, rat, plasma, iv, 2 mg/kg, SD rats, i.v. 2 mg·kg^−1, read-out: MRT0‐t): 4.5 ± 0.28 h
- MRT ([3]; SD, rat, plasma, iv, 2 mg/kg, SD rats, i.v. 2 mg·kg^−1, read-out: MRT0‐∞): 5.16 ± 0.36 h
- AUC ([3]; SD, rat, plasma, iv, 2 mg·kg^−1, SD rats, after an IV dose, read-out: mean AUC(0‐t)): 773 ng·h/mL
- concentration at 2 h ([3]; SD, rat, plasma, po, 20 mg/kg, PO 20 mg/kg, 2 h, read-out: Mean plasma concentration): 60 ng/mL
- concentration at 4 h ([3]; SD, rat, plasma, po, 20 mg/kg, PO 20 mg/kg, 4 h, individual animals 201, 202, 203, read-out: Individual plasma concentration): 84.7 ng/mL
- concentration at 4 h ([3]; SD, rat, plasma, po, 20 mg/kg, PO 20 mg/kg, 4 h, read-out: Mean plasma concentration): 85.2 ng/mL
Structure (SMILES): COc1cc(OC)c(Cl)c(-c2ccc3c(/C=C/c4ccc(N(C)C(=O)CN5CCN(C)CC5)cc4)n[nH]c3c2)c1Cl [YTH‐60, (E)‐N‐(4‐(2‐(6‐(2,6‐dichloro‐3,5‐dimethoxyphenyl)‐1H‐indazol‐3‐yl)vinyl)phenyl)‐N‐methyl‐2‐(4‐methylpiperazin‐1‐yl)acetamide]
- infiltrating inflammatory cells in BALF (in words) [1]: significantly reduce the number of infiltrating inflammatory cells
- cytotoxicity, viability of LO2 cells (in words) (LO2 cells): inhibited the viability of LO2 cells less than Nintedanib
- TGF‐β1‐induced phosphorylation of Smad2/3 (in words) [2]: significantly reduced this phosphorylation
- cell migration (in words) (A549 cells): significantly inhibited cell migration
- Individual plasma concentration ([3]; PO 20 mg/kg, 2 h, individual animals 201, 202, 203, 20 mg/kg): 87.47 ng/mL and 35.35 ng/mL and 57.08 ng/mL
